Results on 25 compounds are retold here after patent publication US20230002373A1, “COMPOUNDS AND COMPOSITIONS FOR TREATING CONDITIONS ASSOCIATED WITH STING ACTIVITY” (IFM Due, Inc., priority 2019, published 2023).

For the experiment, the target named is T1, hSTING (Homo sapiens, UniProt Q86WV6, G230A/H232R/R293Q/R71H).
T1 construct: host or cells: THP1-Dual KO-IFNAR2 cells
As to the kind of experiment: STING reporter assay (luciferase) in THP1-Dual KO-IFNAR2 cells stimulated with 2′3′cGAMP. In kind it is cell-based. Particulars: 15 μM 2′3′cGAMP, 24 h. The procedure:
STING pathway activation by the compounds described herein was measured using THP1-Dual™ cells (KO-IFNAR2).
THP1-Dual™ KO-IFNAR2 Cells (obtained from invivogen) were maintained in RPMI, 10% FCS, 5 ml P/S, 2 mM L-glut, 10 mM Hepes, and 1 mM sodium pyruvate. Compounds were spotted in empty 384 well tissue culture plates (Greiner 781182) by Echo for a final concentration of 0.0017-100 μM. Cells were plated into the TC plates […], 2×10E6 cells/mL. For activation with STING ligand, 2′3′cGAMP (MW 718.38, obtained from Invivogen), was prepared in Optimem media.
The following solutions were prepared for each 1×384 plate: • Solution A: 2 mL Optimem with one of the following stimuli: • 60 μL of 10 mM 2′3′cGAMP->150 μM stock • Solution B: 2 mL Optimem with 60 μL Lipofectamine 2000->Incubate 5 min at RT
2 mL of solution A and 2 ml Solution B was mixed and incubated for 20 min at room temperature (RT). 20 uL of transfection solution (A+B) was added on top of the plated cells, with a final 2′3′cGAMP concentration of 15 μM. The plates were then centrifuged immediately at 340 g for 1 minute, after which they were incubated at 37° C., 5% CO2, >98% humidity for 24 h. Luciferase reporter activity was then measured. EC50 values were calculated by using standard methods known in the art.
Luciferase reporter assay: 10 μL of supernatant from the assay was transferred to white 384-plate with flat bottom and squared wells. One pouch of QUANTI-Luc™ Plus was dissolved in 25 mL of water. 100 μL of QLC Stabilizer per 25 mL of QUANTI-Luc™ Plus solution was added. 50 μL of QUANTI-Luc™ Plus/QLC solution per well was then added. Luminescence was measured on a Platereader (e.g., Spectramax I3X (Molecular Devices GF3637001)).
Luciferase reporter activity was then measured. EC50 values were calculated by using standard methods known in the art.

As a reminder, the pEC50 is −log10 of the EC50, conventionally taken in molar units. The low end stands for a large EC50, the high end for a small EC50.

Molecules are shown by their SMILES. pEC50: −log10 of the molar value.

T1 sequence (Q86WV6 whole entry R71H/G230A/H232R/R293Q): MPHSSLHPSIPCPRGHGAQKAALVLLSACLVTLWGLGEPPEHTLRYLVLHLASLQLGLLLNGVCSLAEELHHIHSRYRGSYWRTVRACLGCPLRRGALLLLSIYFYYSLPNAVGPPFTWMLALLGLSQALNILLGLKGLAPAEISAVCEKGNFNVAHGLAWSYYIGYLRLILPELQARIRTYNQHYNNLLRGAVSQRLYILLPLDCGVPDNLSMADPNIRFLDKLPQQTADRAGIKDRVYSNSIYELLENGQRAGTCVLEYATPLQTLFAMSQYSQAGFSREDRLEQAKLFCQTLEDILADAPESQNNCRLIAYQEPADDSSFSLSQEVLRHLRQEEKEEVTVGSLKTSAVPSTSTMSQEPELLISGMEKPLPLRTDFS

Regarding `O=C(NCc1ccc(Cl)cc1C(F)(F)F)C(=O)Nc1c[nH]c2ccncc12` [Compound 167, N1-(4-chloro-2-(trifluoromethyl)-benzyl)-N2-(1H-pyrrolo[3,2-c]pyridin-3-yl)oxalamide], under “class symbols”, the pEC50 is 6.00 to 6.70.

As to `COc1ccc(CNC(=O)C(=O)Nc2c[nH]c3ccncc23)cc1Cl` [Compound 168, N1-(3-chloro-4-methoxybenzyl)-N2-(1H-pyrrolo[3,2-c]pyridin-3-yl)oxalamide], the pEC50 (numeric bounds) was under 4.52.

The compound `O=C(NCc1cccc(C(F)(F)F)c1F)C(=O)Nc1c[nH]c2ccncc12` [Compound 170, N1-(2-fluoro-3-(trifluoromethyl)-benzyl)-N2-(1H-pyrrolo[3,2-c]pyridin-3-yl)oxalamide] showed a negative-log EC50 (pEC50) (class symbols) of 5.30 to 6.00.

Turning to `O=C(NCc1ccc(Cl)c(C(F)(F)F)c1)C(=O)Nc1c[nH]c2ccncc12` [Compound 171, N1-(4-chloro-3-(trifluoromethyl)-benzyl)-N2-(1H-pyrrolo[3,2-c]pyridin-3-yl)oxalamide], the pEC50 (class symbols) is 6.00 to 6.70.

As for `O=C(NCc1ccccc1C(F)(F)F)C(=O)Nc1c[nH]c2ccncc12` [Compound 172, N1-(1H-pyrrolo[3,2-c]pyridin-3-yl)-N2-(2-(trifluoromethyl)-benzyl)-oxalamide], the pEC50 (class symbols) is 4.00 to 5.30.

`O=C(NCc1cccc(OC(F)(F)F)c1)C(=O)Nc1c[nH]c2ccncc12` [Compound 173, N1-(1H-pyrrolo[3,2-c]pyridin-3-yl)-N2-(3-(trifluoromethoxy)-benzyl)oxalamide] had a pEC50 (class symbols) of 5.30 to 6.00.

`Cc1ccc(CNC(=O)C(=O)Nc2c[nH]c3cc(F)cnc23)cc1C(F)(F)F` [Compound 174] had a negative-log EC50 (pEC50) (class symbols) of 6.00 to 6.70.

Compound `Cc1c(NC(=O)C(=O)Nc2c[nH]c3ccncc23)cccc1C(F)(F)F` [Compound 175, N1-(2-methyl-3-(trifluoromethyl)-phenyl)-N2-(1H-pyrrolo[3,2-c]pyridin-3-yl)oxalamide] showed a pEC50 (class symbols) of 5.30 to 6.00.

`Cc1ccc2[nH]cc(NC(=O)C(=O)Nc3cnc(N4CCC(F)(F)CC4)c(Cl)c3)c2n1` [Compound 195, N-(5-chloro-6-(4,4-difluoropiperidin-1-yl)pyridin-3-yl)-N′-(5-methyl-1H-pyrrolo[3,2-b]pyridin-3-yl)oxalamide] had a negative logarithm of the EC50 (pEC50) (class symbols) of 5.30 to 6.00.

`O=C(Nc1c[nH]c2ncc(F)cc12)C(=O)NC1CCC2(CCCC2)CC1` [Compound 198, N-(5-fluoro-1H-pyrrolo[2,3-b]pyridin-3-yl)-N′-(spiro[4.5]decan-8-yl)oxalamide] showed a pEC50 (class symbols) of 6.00 to 6.70.

Take `O=C(Nc1c[nH]c2ncc(F)cc12)C(=O)NC1CCC2(CCCC2)C1` (stereo not shown) [Compound 203]: the pEC50 (class symbols) was 4.00 to 5.30.

Consider `O=C(Nc1c[nH]c2ncc(F)cc12)C(=O)NC1CCC2(CCCCC2)C1` (stereo not shown) [Compound 204, N-(5-fluoro-1H-pyrrolo[2,3-b]pyridin-3-yl)-N′-(spiro[4.5]decan-2-yl)oxalamide], for which the pEC50 (class symbols) was 4.00 to 5.30.

For the setting “class symbols”, `C[C@@H](NC(=O)C(=O)Nc1c[nH]c2c(F)cncc12)c1ccc(C(F)(F)F)cc1` [Compound 205] had a negative-log EC50 (pEC50) of 5.30 to 6.00.

`CC(C)n1cc(-c2ccc3[nH]cc(NC(=O)C(=O)Nc4ccc(C5CCCCC5)cn4)c3n2)cn1` [Compound 206, N-(5-cyclohexylpyridin-2-yl)-N′-(5-(1-isopropyl-1H-pyrazol-4-yl)-1H-pyrrolo[3,2-b]pyridin-3-yl)oxalamide]: under “class symbols”, the pEC50 is 5.30 to 6.00.

Under “class symbols”, `Cc1ccc2[nH]cc(NC(=O)C(=O)Nc3ccc(C4CCCCC4)cn3)c2n1` [Compound 207] showed a pEC50 of 6.00 to 6.70.

Under “class symbols”, `O=C(NCc1ccc(Cl)c(OC(F)(F)F)c1)C(=O)Nc1c[nH]c2c(F)cncc12` [Compound 208] had a pEC50 of 5.30 to 6.00.

On to `Cc1ccccc1N1C2CCC1CC(NC(=O)C(=O)Nc1c[nH]c3ncc(F)cc13)C2` (stereo not shown) [Compound 209, N-[5-fluoro-1H-pyrrolo[2,3-b]pyridin-3-yl]-N′-[8-(2-methylphenyl)-8-azabicyclo[3.2.1]octan-3-yl]ethanediamide], for which the pEC50 (class symbols) is 5.30 to 6.00.

`O=C(Nc1ccc(C2CCCCC2)cn1)C(=O)Nc1c[nH]c2ccc(Br)nc12` [Compound 210]: the pEC50 (class symbols) is 6.00 to 6.70.

Regarding `O=C(NCc1ccc(OC(F)(F)F)c(Cl)c1)C(=O)Nc1c[nH]c2ccncc12` [Compound 211], the pEC50 (class symbols) was 6.00 to 6.70.

For the compound `O=C(NCc1ccc(Cl)c(OC(F)(F)F)c1)C(=O)Nc1c[nH]c2ccncc12` [Compound 212], the negative logarithm of the EC50 (pEC50) (class symbols) was 6.00 to 6.70.

As for `Cc1cc(CNC(=O)C(=O)Nc2c[nH]c3cnccc23)ccc1C(F)(F)F` [Compound 213], the pEC50 (class symbols) is 5.30 to 6.00.

`COc1cc2c(NC(=O)C(=O)NCc3ccc(C)c(C(F)(F)F)c3)c[nH]c2cn1` [Compound 214] gave a pEC50 (class symbols) of 5.30 to 6.00.

`COc1ccc2[nH]cc(NC(=O)C(=O)NCc3ccc(C)c(C(F)(F)F)c3)c2n1` [Compound 215] gave a pEC50 (class symbols) of 6.00 to 6.70.

Consider `O=C(Nc1ccc(C(F)(F)F)c(Cl)c1)C(=O)Nc1c[nH]c2ccncc12` [Compound 216], for which the negative-log EC50 (pEC50) (class symbols) was 6.00 to 6.70.

As to `O=C(Nc1ccc(C(F)(F)F)c(Cl)c1)C(=O)Nc1c[nH]c2cccnc12` [Compound 217], the pEC50 (class symbols) is 5.30 to 6.00.
